This is an account of results in patent US20260151492A1 (priority 2022, published 2026).

Molecules are shown by their SMILES. Read-outs that look alike come from different tables or passages of the source.

The target of assay [1] is T1, DRD2L (Homo sapiens, UniProt P14416). To be noted: statement on ketamine, no own data shown; cited from earlier work.
The subject of another assay is Mecp2-null mice. The note with it: cited from earlier work.
The target in assay [2] is T2, Sigma 2 (Homo sapiens, UniProt Q5BJF2). To be noted: literature (Pergolizi, 2023; Bonaventura, 2021); cited from earlier work.
T2 sequence (Q5BJF2 whole entry): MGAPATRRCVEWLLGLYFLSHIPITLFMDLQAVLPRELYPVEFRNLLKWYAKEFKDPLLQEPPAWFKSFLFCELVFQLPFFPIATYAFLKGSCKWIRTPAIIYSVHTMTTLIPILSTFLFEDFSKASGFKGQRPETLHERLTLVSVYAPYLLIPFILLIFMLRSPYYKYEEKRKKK
Assay [3] has as its target T1, DRD2L. Briefly: D2L human dopamine GPCR cell based agonist cAMP assay.
The next assay deals with Opiate μ (Homo sapiens, UniProt P35372). The assay is described as follows: Opiate μ binding assay.
Sequence of Opiate μ (P35372 whole entry): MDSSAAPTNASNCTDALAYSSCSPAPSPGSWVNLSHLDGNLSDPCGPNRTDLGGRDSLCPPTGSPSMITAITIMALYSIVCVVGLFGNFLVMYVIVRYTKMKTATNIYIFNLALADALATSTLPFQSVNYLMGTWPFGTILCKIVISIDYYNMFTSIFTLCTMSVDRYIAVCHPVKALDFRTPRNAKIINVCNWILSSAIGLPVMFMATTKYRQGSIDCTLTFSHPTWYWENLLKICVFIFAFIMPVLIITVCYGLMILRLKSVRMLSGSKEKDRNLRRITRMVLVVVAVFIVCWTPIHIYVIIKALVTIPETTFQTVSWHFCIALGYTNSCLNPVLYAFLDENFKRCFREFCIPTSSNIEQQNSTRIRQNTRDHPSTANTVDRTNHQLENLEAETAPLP
The next assay addresses NMDAR 1A/2B (Homo sapiens, UniProt Q05586+Q13224). Briefly: NMDAR 1A/2B antagonist (ion channel blocker) assay. It counts as cell-based.
A further assay addresses Opiate k (Homo sapiens, UniProt P41145). The assay is described as follows: Opiate k binding assay.
Assay [4] concerns the target T2, Sigma 2. Briefly: Sigma 2 binding assay.

Sequence of Opiate k (P41145 whole entry): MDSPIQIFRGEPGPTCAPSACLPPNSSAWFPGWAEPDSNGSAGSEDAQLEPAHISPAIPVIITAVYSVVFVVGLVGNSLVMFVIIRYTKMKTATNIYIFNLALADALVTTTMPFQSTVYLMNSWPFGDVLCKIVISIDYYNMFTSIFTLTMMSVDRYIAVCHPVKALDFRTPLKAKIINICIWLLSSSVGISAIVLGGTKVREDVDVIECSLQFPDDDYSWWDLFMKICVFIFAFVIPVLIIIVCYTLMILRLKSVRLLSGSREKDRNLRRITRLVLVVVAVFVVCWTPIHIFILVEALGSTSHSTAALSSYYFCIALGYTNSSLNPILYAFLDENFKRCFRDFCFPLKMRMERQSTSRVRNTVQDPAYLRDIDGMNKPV
Sequence of NMDAR 1A/2B (Q13224 27-1484, other chains not shown): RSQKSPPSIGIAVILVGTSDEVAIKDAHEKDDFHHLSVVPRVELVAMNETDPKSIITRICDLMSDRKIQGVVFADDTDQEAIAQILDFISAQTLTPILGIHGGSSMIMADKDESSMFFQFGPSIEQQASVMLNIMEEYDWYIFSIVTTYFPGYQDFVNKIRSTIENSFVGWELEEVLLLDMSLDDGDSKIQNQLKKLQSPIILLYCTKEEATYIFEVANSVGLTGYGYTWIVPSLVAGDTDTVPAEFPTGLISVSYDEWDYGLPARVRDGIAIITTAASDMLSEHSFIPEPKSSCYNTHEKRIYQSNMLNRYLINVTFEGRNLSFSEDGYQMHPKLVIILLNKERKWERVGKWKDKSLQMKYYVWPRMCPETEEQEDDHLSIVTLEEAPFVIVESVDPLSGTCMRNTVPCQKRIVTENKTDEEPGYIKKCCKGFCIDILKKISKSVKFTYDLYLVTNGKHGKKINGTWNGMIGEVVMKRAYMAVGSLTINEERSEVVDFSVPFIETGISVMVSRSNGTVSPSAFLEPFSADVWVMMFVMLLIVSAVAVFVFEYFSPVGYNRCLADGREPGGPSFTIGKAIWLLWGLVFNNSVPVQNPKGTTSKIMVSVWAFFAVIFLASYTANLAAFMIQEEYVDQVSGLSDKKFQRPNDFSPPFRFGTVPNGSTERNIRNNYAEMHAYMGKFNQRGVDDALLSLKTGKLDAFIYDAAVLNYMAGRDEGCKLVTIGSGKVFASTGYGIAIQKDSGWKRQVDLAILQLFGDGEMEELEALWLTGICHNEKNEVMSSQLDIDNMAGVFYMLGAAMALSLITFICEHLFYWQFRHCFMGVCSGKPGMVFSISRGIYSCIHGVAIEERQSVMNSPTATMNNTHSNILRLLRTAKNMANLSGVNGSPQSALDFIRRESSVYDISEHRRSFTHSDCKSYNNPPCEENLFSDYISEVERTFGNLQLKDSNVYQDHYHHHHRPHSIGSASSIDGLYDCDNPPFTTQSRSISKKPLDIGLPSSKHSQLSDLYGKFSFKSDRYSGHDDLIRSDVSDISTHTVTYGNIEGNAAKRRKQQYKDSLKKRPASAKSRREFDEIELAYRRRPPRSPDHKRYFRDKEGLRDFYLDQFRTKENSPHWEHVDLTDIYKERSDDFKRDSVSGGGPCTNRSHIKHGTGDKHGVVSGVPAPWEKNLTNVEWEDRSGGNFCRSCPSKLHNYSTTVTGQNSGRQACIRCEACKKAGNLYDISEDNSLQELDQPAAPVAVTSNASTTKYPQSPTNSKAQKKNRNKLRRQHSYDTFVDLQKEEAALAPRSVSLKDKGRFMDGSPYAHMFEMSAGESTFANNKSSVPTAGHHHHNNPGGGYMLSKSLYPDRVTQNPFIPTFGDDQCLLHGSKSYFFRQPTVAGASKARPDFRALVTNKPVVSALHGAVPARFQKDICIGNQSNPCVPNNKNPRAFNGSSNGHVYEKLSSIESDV
T1 sequence (P14416 whole entry): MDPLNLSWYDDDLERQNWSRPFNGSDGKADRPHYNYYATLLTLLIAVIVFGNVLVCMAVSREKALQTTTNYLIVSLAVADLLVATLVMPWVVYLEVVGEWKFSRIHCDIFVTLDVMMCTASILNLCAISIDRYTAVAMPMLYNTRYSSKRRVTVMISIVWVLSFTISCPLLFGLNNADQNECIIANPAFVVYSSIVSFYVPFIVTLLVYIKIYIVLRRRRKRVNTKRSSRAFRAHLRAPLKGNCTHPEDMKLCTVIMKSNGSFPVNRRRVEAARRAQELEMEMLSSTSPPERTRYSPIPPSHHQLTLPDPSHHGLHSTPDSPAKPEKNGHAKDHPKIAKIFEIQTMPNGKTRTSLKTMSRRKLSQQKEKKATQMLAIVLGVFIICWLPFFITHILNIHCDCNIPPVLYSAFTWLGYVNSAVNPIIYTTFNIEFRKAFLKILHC

For `CNC1(c2ccccc2Cl)CCCCC1=O` (racemic) [Ketamine, (R,S)-ketamine], the “Affinity for dopamine 2 receptors (in words)” value on DRD2L [1] is “not shown any affinity”. Besides, in the assay with Mecp2-null mice (8 mg/kg IP every day for 40 days (total 320 mg/kg), at 80 days post natal), the Improvement of survival was 50%. The “Efficacy of treatment (in words)” value is “some efficacy” in the assay with Mecp2-null mice (8 mg/kg/day ip from day 15 to day 55 (320 mg/kg total)) and “not effective” in the assay with Mecp2-null mice (8 mg/kg/day ip from day 30 to day 55 (200 mg/kg total)). In the assay with Mecp2-null mice (after treatment with 320 mg/kg of ketamine, published data), the Survival is 50%. In addition, the “Binding to sigma2 receptors (in words)” value on Sigma 2 [2] is given as “binds sigma2 receptors at mM concentrations”.

Turning to `NC1(c2ccccc2Cl)CCCCC1=O` (racemic) [NorKetamine, (R,S)-Norketamine], the “Binding to Dopamine 2 receptors (in words)” value on DRD2L [3] is “does not appear to bind”. Also, the “Ki, Opioid μ receptors” value on Opiate μ is reported as “does not bind”. Also, the IC50 – broadly, the concentration that gives 50% inhibition – at NMDAR 1A/2B (IC50, NMDAR 1A/2B antagonist assay, FIG. 15A) came out at 6.96 µM; at NMDAR 1A/2B (NMDAR 1A/2B Ion channel blocker, Table 5) it was 6.9 µM; on Opiate k it was 667 µM; at Sigma 2 [4], 246 µM. Affinity on Opiate k was put at a Ki of 381 µM.
